# Data from PMC3183052, “Immunoprotectivity of HLA-A2 CTL Peptides Derived from Respiratory Syncytial Virus Fusion Protein in HLA-A2 Transgenic Mouse” (PLoS ONE, 2011).
# Legend:
# [1] = test system: splenocytes from HLA-A*0201 transgenic C57BL/6 mice; test: IFN-γ ELISPOT of splenocytes restimulated with peptide; format: cell-based, mouse
# Outline: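 HLA-A*0201 transgenic C57BL/6 mice primed and boosted intranasally 20 days apart with 1×10^7 pfu rAd-F0 or 1×10^4 live RSV B1; splenocytes taken 10 days post-boost. Splenocytes restimulated 48 h at 37°C with 2 µg individual RSV F 9-mer peptides; spots counted, expressed per 5×10^5 splenocytes.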
# lung eosinophils = test: Eosinophil infiltration into the lungs (anti-MBP immunohistochemistry); format: in vivo, HLA-A*0201 transgenic C57BL/6 mice; details: day 4 post RSV challenge; anti-MBP staining, 20 fields at 200×; six mice per group
# Source text: Whole lungs were excised from the mice, fixed in 10% formalin (Sigma-Aldrich) solution overnight and embedded in paraffin (Thermo Fisher Scientific) for sectioning. The sections were stained with rat monoclonal anti-major basic protein (MBP) antibody (1∶500 dilution, gifted from Dr. James J. Lee, Mayo Clinic, AZ, USA) followed by the appropriate secondary antibodies. Twenty-bright field microscopy pictures (Nikon DXM1200 CCD digital camera attached with ACT-1 imaging capture software) from each stained section were taken at 200× magnifications and the number of eosinophils was counted. The mean of eosinophil count from each section was calculated.
# Figure 6 Eosinophil infiltration into the lungs of peptide-immunized transgenic mice upon RSV challenge. Immunohistochemical analysis of lung sections with anti-major basic protein antibody specific for eosinophils followed by the HRP-conjugated anti-rat antibody was performed. (A) Pictures from the section of normal mouse lung (a), or vehicle- (b), peptide 3- (c), 13- (d), 14- (e) and 23- (f) immunized mouse lung section. (B) Quantitative representation of eosinophil count per section of peptide- or vehicle-immunized HLA-transgenic mice at day 4 post RSV challenge. Twenty bright field pictures from each lung mesenchymal region were examined and the number of eosinophils was counted under 200× magnification. […]
sequence,measurement,setting,value
"YMLTNSELL [peptide 14, HLA-A*0201-restricted 9-mer synthetic peptide from F protein of RSV-B1 strain]","IFN-γ ELISPOT, RSV","[1]; splenocytes of HLA-Tg B6 mice primed and boosted i.n. with 10^4 pfu RSV-B1, restimulated with 2 µg peptide, representative of two experiments, five mice per group",97 cytokine-secreting cells per 5×10^5 splenocytes
same,"IFN-γ ELISPOT, rAd-F0","[1]; splenocytes of HLA-Tg B6 mice primed and boosted i.n. with 10^7 pfu rAd-F0, restimulated with 2 µg peptide, representative of two experiments, five mice per group",200 cytokine-secreting cells per 5×10^5 splenocytes
same,"IFN-γ level in restimulated splenocytes (ELISPOT, text grading)","[1]; splenocytes of rAd-F0- or RSV B1-primed and boosted HLA-Tg B6 mice, high = over 100 spots, moderate = over 50 spots",over 100 spots
same,eosinophil numbers in the lungs vs vehicle-immunized mice,lung eosinophils,comparable eosinophil numbers
